Test results from ChEMBL document CHEMBL3596159, “Beyond substrate analogues: new inhibitor chemotypes for glycosyltransferases” (Medchemcomm, 2014).
In brackets after ≈: the same amount, converted by molar mass. Each block holds one molecule with its values, some of them ahead of it.

Key:
[1] = Inhibition of GTA (unknown origin); set-up: species or system Homo sapiens
[2] = molecular target: Histo-blood group ABO system transferase (Homo sapiens, UniProt P16442); assay: Inhibition of GTB (unknown origin)
Histo-blood group ABO system transferase, sequence (P16442 whole entry): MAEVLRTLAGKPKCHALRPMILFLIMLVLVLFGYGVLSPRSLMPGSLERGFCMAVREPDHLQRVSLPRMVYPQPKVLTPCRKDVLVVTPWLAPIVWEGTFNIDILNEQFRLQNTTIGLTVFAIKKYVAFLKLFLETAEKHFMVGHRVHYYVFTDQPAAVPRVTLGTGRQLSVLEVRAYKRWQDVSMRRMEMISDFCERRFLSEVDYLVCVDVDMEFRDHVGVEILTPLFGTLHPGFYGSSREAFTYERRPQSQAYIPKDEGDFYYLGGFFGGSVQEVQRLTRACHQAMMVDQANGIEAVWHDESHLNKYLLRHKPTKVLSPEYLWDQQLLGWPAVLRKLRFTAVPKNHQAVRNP

[3] = Inhibition of AAGlyB (unknown origin); set-up: species or system Homo sapiens
[4] = Inhibition of alpha-(1,3)-GalT (unknown origin); set-up: species or system Homo sapiens
[5] = molecular target: T1, Beta-galactoside alpha-2,6-sialyltransferase 1 (Homo sapiens, UniProt P15907); assay: Inhibition of human ST6Gal1
T1 sequence (P15907 whole entry): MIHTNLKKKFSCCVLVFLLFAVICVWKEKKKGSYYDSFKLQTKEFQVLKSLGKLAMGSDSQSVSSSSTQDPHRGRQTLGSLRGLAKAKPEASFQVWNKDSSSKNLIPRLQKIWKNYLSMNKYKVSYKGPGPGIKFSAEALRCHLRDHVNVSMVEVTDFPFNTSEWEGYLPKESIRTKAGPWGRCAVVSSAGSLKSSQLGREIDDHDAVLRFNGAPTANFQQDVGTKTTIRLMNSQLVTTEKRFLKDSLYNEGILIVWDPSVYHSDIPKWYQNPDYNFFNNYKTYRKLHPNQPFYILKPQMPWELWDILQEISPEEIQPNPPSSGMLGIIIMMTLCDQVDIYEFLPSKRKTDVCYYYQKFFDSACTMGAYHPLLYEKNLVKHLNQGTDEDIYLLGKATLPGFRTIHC

[6] = molecular target: Beta-galactoside alpha-2,6-sialyltransferase 1 (Rattus norvegicus, UniProt P13721); assay: Inhibition of rat ST6Gal1
Beta-galactoside alpha-2,6-sialyltransferase 1 (Rattus norvegicus, UniProt P13721), sequence (P13721 whole entry): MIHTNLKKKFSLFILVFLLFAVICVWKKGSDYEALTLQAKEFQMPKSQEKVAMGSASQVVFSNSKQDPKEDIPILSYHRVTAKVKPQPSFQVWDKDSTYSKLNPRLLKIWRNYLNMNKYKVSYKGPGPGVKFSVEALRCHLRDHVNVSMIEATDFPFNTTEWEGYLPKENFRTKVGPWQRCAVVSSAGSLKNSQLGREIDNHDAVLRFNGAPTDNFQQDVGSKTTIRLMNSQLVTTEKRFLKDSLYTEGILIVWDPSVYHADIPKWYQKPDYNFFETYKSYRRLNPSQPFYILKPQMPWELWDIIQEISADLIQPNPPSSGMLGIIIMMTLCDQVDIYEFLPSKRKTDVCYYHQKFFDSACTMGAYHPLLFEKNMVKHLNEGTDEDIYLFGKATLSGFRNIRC

[7] = molecular target: CMP-N-acetylneuraminate-beta-1,4-galactoside alpha-2,3-sialyltransferase (Rattus norvegicus, UniProt Q02734); assay: Inhibition of rat ST3Gal3
CMP-N-acetylneuraminate-beta-1,4-galactoside alpha-2,3-sialyltransferase (Rattus norvegicus, UniProt Q02734), sequence (Q02734 whole entry): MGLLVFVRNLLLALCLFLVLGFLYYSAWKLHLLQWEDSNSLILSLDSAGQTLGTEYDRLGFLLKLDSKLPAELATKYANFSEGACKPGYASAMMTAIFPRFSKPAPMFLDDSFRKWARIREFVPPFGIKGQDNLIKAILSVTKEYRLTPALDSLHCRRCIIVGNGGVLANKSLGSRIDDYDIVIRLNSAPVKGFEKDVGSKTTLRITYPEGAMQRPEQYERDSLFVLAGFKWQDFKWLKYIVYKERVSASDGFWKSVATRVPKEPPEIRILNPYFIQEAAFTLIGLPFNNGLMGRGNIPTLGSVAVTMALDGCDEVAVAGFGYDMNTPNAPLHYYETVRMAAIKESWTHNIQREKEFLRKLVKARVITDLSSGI

[8] = Inhibition of Candida albicans chitin synthase
[9] = Inhibition of methicillin-resistant Staphylococcus aureus MurG
Staphylococcus aureus = assay: Antimicrobial activity against methicillin-resistant Staphylococcus aureus; format: functional
[10] = molecular target: T2, 4-galactosyl-N-acetylglucosaminide 3-alpha-L-fucosyltransferase FUT5 (Homo sapiens, UniProt Q11128); assay: Inhibition of FucT-5 (unknown origin)
T2 sequence (Q11128 whole entry): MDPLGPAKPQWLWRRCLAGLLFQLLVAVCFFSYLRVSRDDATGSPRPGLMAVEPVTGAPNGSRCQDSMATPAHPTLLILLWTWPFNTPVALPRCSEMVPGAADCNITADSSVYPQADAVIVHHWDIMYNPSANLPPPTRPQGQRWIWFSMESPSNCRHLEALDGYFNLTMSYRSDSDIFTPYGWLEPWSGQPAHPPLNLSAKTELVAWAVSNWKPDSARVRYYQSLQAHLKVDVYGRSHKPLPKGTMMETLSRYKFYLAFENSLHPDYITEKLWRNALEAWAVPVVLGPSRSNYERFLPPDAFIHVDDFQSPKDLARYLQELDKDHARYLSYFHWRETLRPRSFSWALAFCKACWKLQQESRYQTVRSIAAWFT

[11] = molecular target: T3, CMP-N-acetylneuraminate-beta-1,4-galactoside alpha-2,3-sialyltransferase (Homo sapiens, UniProt Q11203); assay: Inhibition of ST3N (unknown origin)
T3 sequence (Q11203 whole entry): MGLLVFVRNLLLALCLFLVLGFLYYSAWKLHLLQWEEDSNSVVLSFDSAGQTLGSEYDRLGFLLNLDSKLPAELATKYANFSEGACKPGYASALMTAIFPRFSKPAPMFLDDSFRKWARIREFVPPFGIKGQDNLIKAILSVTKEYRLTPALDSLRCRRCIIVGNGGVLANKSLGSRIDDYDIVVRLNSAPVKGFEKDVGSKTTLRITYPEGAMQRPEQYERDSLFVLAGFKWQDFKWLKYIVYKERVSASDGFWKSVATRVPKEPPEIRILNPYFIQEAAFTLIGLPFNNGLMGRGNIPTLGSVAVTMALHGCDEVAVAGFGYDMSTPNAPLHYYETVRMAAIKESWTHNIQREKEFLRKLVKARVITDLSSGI

[12] = molecular target: T4, 4-galactosyl-N-acetylglucosaminide 3-alpha-L-fucosyltransferase FUT6 (Homo sapiens, UniProt P51993); assay: Inhibition of FucT-6 (unknown origin)
T4 sequence (P51993 whole entry): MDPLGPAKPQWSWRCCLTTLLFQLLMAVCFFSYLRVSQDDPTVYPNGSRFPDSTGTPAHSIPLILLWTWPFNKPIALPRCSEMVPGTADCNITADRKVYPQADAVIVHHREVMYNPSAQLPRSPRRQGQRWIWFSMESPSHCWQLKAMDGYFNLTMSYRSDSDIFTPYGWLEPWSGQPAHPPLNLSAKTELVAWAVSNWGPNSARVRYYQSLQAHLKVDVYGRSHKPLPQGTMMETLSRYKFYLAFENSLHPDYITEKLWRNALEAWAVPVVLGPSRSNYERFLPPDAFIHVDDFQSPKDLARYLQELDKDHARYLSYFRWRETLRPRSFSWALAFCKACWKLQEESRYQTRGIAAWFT

[13] = molecular target: T1, Beta-galactoside alpha-2,6-sialyltransferase 1; assay: Inhibition of ST6N (unknown origin)
[14] = molecular target: T2, 4-galactosyl-N-acetylglucosaminide 3-alpha-L-fucosyltransferase FUT5; assay: Uncompetitive inhibition of FucT-5 (unknown origin) using GDP-fucose as donor substrate
[15] = molecular target: T2, 4-galactosyl-N-acetylglucosaminide 3-alpha-L-fucosyltransferase FUT5; assay: Non-competitive inhibition of FucT-5 (unknown origin) using LacNAc as acceptor substrate
[16] = molecular target: T5, CMP-N-acetylneuraminate-beta-galactosamide-alpha-2,3-sialyltransferase 1 (Homo sapiens, UniProt Q11201); assay: Inhibition of ST3Gal 1 (unknown origin)
T5 sequence (Q11201 whole entry): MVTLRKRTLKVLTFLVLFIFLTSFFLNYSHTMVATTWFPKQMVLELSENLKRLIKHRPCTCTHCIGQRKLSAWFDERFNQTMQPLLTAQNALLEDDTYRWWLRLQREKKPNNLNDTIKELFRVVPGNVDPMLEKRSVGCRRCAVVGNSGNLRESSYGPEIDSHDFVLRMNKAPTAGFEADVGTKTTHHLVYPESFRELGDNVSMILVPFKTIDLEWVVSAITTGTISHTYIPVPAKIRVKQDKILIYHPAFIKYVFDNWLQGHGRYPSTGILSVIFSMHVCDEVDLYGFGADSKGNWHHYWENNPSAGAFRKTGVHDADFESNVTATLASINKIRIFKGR

[17] = molecular target: Alpha-(1,3)-fucosyltransferase 4 (Homo sapiens, UniProt P22083); assay: Inhibition of FucT-4 (unknown origin)
Alpha-(1,3)-fucosyltransferase 4, sequence (P22083 whole entry): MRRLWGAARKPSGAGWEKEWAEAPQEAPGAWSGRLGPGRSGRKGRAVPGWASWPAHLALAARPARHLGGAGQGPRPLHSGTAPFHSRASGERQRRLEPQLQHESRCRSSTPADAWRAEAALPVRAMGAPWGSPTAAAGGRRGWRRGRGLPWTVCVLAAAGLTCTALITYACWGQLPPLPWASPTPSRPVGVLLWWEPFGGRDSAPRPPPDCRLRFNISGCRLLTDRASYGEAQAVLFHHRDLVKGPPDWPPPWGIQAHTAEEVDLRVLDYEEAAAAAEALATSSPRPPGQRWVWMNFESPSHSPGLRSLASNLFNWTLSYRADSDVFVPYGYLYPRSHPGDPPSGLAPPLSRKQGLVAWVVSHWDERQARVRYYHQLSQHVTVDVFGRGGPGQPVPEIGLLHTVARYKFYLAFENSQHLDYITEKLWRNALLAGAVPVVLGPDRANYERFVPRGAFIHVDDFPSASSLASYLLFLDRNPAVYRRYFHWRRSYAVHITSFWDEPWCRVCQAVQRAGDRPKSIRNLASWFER

[18] = Inhibition of sialyltransferase (unknown origin); set-up: species or system Homo sapiens
[19] = molecular target: T1, Beta-galactoside alpha-2,6-sialyltransferase 1; assay: Inhibition of ST6Gal 1 (unknown origin)

Structure (SMILES): C[C@@H]([C@H](N)C(=O)N[C@H](C(=O)O)[C@H]1O[C@@H](n2ccc(=O)[nH]c2=O)[C@H](O)[C@@H]1O)[C@H](O)c1ccc(O)cn1 [NIKKOMYCIN]
Ki [8]: 0.16 µM

Structure (SMILES): C[C@]12Cc3cnn(-c4ccncc4)c3C=C1CC[C@@H]1[C@@H]2CC[C@@]2(C)[C@H]1CC[C@]2(O)C(=O)CO
IC50 [9]: 115 µg/mL (≈ 257 µM)
MIC (Staphylococcus aureus): 2 µg/mL (≈ 4.47 µM)

Structure (SMILES): O=C(O)c1cc(O)c(O)c(O)c1 [GALLIC ACID]
IC50 [17]: 14 µM
IC50 [18]: 19 µM

Results, then the molecule that gave them:

Ki [1]: 5100 µM
Ki [2]: 800 µM
Ki [3]: > 15000 µM
Ki [4]: 6300 µM
Structure (SMILES): c1ccc(-c2nsc(N3CCNCC3)n2)cc1

IC50 [5]: 7.1 µM
IC50 [6]: 5.1 µM
IC50 [7]: 1.4 µM
Structure (SMILES): O=c1cc(-c2ccc(O)c(O)c2)oc2ccccc12

IC50 [10]: 11.3 µM
IC50 [11]: 10 µM
IC50 [12]: 20.9 µM
IC50 [13]: 0.61 µM
Ki [14]: 10.7 µM
Ki [15]: 9.7 µM
IC50 [16]: 6.7 µM
Structure (SMILES): C[C@@H]1CC[C@H]2C(C)(C)[C@H](O)CC[C@]2(C)[C@@]12Cc1c(O)cc(C=O)c(C=O)c1O2

IC50 [19]: 1.5 µM
IC50 [16]: 0.88 µM
Structure (SMILES): C[C@H](CCC(=O)O)[C@H]1CC[C@H]2[C@@H]3CC[C@@H]4C[C@H](OC(=O)[C@H](CCC(=O)O)Nc5ccc([N+](=O)[O-])c6nonc56)CC[C@]4(C)[C@H]3CC[C@]12C
